Read-outs that look alike come from different tables or passages of the source.
Tests used:
[1] = system: peripheral blood mononuclear cells (PBMC); experiment: T-lymphocyte proliferation, PMA/ionomycin stimulated PBMC, 3 days; details: Homo sapiens, 72 h, read-out: pIA50 Proliferation (3 days) (converted)
Excerpt: The cell signalling pathways triggered by T-cell activation through the T cell receptor and CD28 can be mimicked in vitro using a phorbol ester, phorbol 12-myristate 13-acetate (PMA), which activates protein kinase C, and ionomycin, which induces calcium release from internal cellular stores. PMA and ionomycin-stimulated proliferation of peripheral blood mononuclear cells (PBMC), of which the predominant cell type is T-lymphocytes, provides a suitable assay for measuring the ability of small molecules to block T-cell proliferation.
Blood was centrifuged at 850 g for 10 minutes and the plasma was removed. […] The blood/Lymphoprep layers were centrifuged at 850 g for 20 minutes at 18° C. (with no brake).
10 μl of compound in solution was then added to the 96-well flat bottom assay plate (final volume of 200 μl). […] Both were diluted to 4× the final assay concentration in complete medium. 50 μl of each reagent was dispensed per well to give a final assay concentration of 0.5 ng/ml PMA and 500 ng/ml ionomycin. Control wells received 100 μl cells with PMA only (negative control 1), with ionomycin only (negative control 2) and 100 μl cells with 50 μl PMA and 50 μl ionomycin with no test compound (positive control). 100 μl complete medium was added to the negative controls. […]

human MCT1 = target: T1, human MCT1 (Homo sapiens, UniProt P53985, D490E); experiment: Lactate uptake by change in intracellular pH (BCECF) in INS-1 cells expressing MCT; format: cell-based; details: 100 nM, INS-1 cells expressing human MCT1, n=2
T1 sequence (P53985 1-500 D490E): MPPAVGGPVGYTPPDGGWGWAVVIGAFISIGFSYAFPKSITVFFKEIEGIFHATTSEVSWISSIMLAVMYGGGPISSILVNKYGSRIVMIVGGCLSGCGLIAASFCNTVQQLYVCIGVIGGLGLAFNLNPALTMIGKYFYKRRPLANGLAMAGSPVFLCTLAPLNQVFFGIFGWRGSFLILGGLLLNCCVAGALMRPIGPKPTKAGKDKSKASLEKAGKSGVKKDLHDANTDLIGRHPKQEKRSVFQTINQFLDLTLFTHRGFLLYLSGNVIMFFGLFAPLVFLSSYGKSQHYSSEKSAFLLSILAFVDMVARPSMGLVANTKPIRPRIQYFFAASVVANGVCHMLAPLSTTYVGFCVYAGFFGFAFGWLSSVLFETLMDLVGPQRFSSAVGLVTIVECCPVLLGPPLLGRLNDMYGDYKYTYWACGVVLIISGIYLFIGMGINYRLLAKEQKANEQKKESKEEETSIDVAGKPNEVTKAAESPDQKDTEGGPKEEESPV
T1 sequence (P26453 142-388 partner limits assumed): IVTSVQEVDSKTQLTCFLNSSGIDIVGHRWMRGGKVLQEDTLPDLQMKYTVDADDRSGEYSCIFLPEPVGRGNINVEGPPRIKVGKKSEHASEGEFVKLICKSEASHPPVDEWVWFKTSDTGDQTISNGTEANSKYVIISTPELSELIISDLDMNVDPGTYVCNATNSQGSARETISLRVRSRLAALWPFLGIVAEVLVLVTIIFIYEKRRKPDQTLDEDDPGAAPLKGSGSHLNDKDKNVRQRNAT

activated T-lymphocytes [2] = experiment: Intracellular lactate levels in activated T-lymphocytes (lactate oxidase); format: cell-based; details: Homo sapiens, T-lymphocyte; Mean±s.e.mean (mean±range for n=2); read-out: pIA50 Intracellular Lactate (converted)
Procedure: (§1) PBMCs were prepared as described above by separation over Lymphoprep and T-lymphocytes were then enriched by purification on a nylon wool column. Briefly, 0.6 g nylon wool was inserted into a 10 ml syringe and this was autoclaved. […] The PBMC were resuspended in 1 ml of pre-warmed RPMI (20% HS) and were loaded onto the nylon wool column. The column was incubated for 45 min at 37° C. followed by elution of the T-cells by adding 10 ml RPMI (20% HS) (prewarmed to 37° C.) dropwise to the column. The T-cells obtained from the elution of the column were centrifuged (850 g for 5 min) and resuspended in RPMI containing L-glutamine and 5% human serum and stimulated with 0.5 ng/ml PMA and 500 ng/ml lonomycin for 48 h.
100 μl of each concentration were added to triplicate wells of a 24-well plate. T-cells were then added (1 ml per well) and were cultured for 4 h under standard cell culture conditions. The cells were then transferred from each well to microfuge tubes and were centrifuged at 360 g for 5 min at 4° C. The supernatant was discarded and the cell pellet was resuspended in 1 ml of ice-cold PBS, pH5.0. The cells were washed twice in PBS by centrifugation (360 g, 5 min, 4° C.) followed by resuspension of the cell pellet in 100 μl deionized water. The cells were incubated for 15 min at 4° C. to allow cell lysis to occur and the cell debris was removed by centrifugation at 15000 g for 10 min at 4° C. 10 μl of each supernatant sample were used for the lactate determination.
(§2) The assay was carried out in 96-well plates at room temperature. 10 μl of standard or sample were added to each well followed by 200 μl of the Lactate Reagent. […] The data were collected and analysed using SOFTmax PRO software (Molecular Devices).

activated T-lymphocytes [3] = experiment: DNA synthesis ([3H]-thymidine incorporation) in activated T-lymphocytes; format: cell-based; details: Homo sapiens, T-lymphocyte; Mean±s.e.mean (mean±range for n=2); read-out: pIA50 DNA (converted)
Procedure: as §1
DNA synthesis was assessed by measuring the incorporation of [^3H]-thymidine. The assay was carried out in a 96-well plate. 20 μl of test compounds at 10× the final concentration were added to the plate followed by 200 μl of T-cells per well (2×10^5 cells). The cells were cultured for 4 h under standard cell culture conditions and cultures were pulsed with ^3H-thymidine (0.5 μCi/well; Amersham) for the final hour of the incubation.

Splenic B-lymphocytes = experiment: Inhibition of B-lymphocyte proliferation; format: cell-based, Balb/c mice; details: 48 hours
Procedure: Splenic B-lymphocytes were obtained from Balb/c mice by disruption of the spleen through a nylon sieve. The resultant cellular suspension was washed three times by centrifugation. The spleen cells were then plated out in flat-bottomed 96 well microtitre plates at a concentration of 2-4×10^5 cells per well. B-lymphocyte stimulators were added with or without compound. Stimulators employed were lipopolysaccharide (LPS) at 50 μg/ml, 8-mercaptoguanosine (8MG) at 100 μg/ml, or goat anti mouse IgM at 40 μg/ml. […] The cultures were incubated for 48 hours at 37° C. and pulsed with tritiated thymidine for the final 6 hours. The cells were harvested as described previously and thymidine uptake used as a measure of DNA synthesis.

activated T-lymphocytes [4] = experiment: Extracellular lactate levels in activated T-lymphocytes (lactate oxidase); format: cell-based, human; details: Homo sapiens, T-lymphocyte; Mean±s.e.mean (mean±range for n=2); read-out: pIA50 Extracellular Lactate (converted)
Procedure: as §1
20 μl of each concentration were added to triplicate wells of a 96-well plate. T-cells were then added (200 μl per well, 2×10^5 cells) and were cultured for 4 h under standard cell culture conditions. The cell supernatants were collected from each well after the cells were pelleted by centrifugation of the plate at 850 g for 5 min at 4° C. 10 μl of each supernatant sample were used for the lactate determination.
as §2

human MCT4 = target: T2, human MCT4 (Homo sapiens, UniProt O15427); experiment: MCT filter binding assay, yeast membranes, radioligand specific binding; details: ~2.5 nM radioligand
T2 construct: from the full length copy and subcloned into the S. cerevisiae expression plasmid pACES14; made in house; host or cells: Saccharomyces cerevisiae BY4742 (jen1 deletion), membrane preparation; plasmid pACES14-hMCT4
T2 sequence (O15427 1-465): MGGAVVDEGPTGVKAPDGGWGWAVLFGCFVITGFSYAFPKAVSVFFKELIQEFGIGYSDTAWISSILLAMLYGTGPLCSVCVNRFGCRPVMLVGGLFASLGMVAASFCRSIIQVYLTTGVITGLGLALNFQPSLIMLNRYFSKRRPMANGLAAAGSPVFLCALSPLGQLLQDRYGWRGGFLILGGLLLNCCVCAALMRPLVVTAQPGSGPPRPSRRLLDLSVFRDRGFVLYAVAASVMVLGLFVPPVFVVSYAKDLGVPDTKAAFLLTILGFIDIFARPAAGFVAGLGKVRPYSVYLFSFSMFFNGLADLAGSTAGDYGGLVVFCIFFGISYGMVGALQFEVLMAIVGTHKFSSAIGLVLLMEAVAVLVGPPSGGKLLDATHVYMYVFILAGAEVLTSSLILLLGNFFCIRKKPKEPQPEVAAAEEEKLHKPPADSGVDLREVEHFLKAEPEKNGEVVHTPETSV
Procedure: (§3) For yeast cells transformed with expression plasmids containing the human MCT 1-4 ORFs the ability of membrane preparations to bind radioligand was determined using a single ligand concentration/multi protein concentration binding assay. This generated an estimate of the amount of active binding protein present in each membrane preparation. The ligand concentration used will give an estimate of Bmax that is approximately 90% of the true value. 10 μl of ligand A, B or C that had been diluted 50 fold with assay buffer (50 mM HEPES, 0.1 mM EDTA, 0.15 M NaCl, pH 7.5, 0.5% BSA) was dispensed into wells of a polypropylene microtitre plate. This gives a final radiolabelled ligand concentration of ˜2.5 nM. […] The membranes were diluted to give a known amount/180 μl assay buffer. This is typically in the […] range. For the membranes with high binding site number a more dilute membrane preparation should be added. 180 μl of each membrane solution was then added to each well and incubated at 2 hours at room temperature with shaking. The membranes were harvested onto GF-B filter plates and washed with assay buffer without BSA, dried, scintillant added and counts detected using the relevant program for each ligand on a Packard Top Count plate reader.

human MCT3 = target: T3, human MCT3 (Homo sapiens, UniProt O95907); experiment: as above; details: ~2.5 nM radioligand
T3 construct: the full length open reading frame of human MCT3 was subcloned into the S. cerevisiae expression plasmid pACES14; made in house; host or cells: Saccharomyces cerevisiae BY4742 (jen1 deletion), membrane preparation; plasmid pACES14-hMCT3
T3 sequence (O95907 1-504): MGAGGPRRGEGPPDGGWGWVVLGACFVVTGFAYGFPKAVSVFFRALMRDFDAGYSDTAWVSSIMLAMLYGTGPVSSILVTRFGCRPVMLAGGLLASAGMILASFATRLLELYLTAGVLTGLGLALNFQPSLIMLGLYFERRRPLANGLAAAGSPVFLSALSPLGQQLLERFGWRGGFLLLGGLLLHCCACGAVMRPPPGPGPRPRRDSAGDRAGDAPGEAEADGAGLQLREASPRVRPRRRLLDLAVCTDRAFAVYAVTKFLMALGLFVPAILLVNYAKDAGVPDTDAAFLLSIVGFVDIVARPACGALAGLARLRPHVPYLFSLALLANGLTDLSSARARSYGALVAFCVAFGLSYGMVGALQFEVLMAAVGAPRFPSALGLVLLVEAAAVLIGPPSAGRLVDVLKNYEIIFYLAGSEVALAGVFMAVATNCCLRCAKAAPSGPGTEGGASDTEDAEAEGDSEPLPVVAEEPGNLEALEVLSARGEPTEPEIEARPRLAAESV
Procedure: as §3

human MCT2 = target: T4, human MCT2 (Homo sapiens, UniProt O60669); experiment: as above; details: ~2.5 nM radioligand
T4 construct: The full length open reading frame for human MCT2 was then subcloned into the S. cerevisiae expression plasmid, pACES14; made in house; host or cells: Saccharomyces cerevisiae BY4742 (jen1 deletion), membrane preparation; plasmid pACES14-hMCT2
T4 sequence (O60669 1-478): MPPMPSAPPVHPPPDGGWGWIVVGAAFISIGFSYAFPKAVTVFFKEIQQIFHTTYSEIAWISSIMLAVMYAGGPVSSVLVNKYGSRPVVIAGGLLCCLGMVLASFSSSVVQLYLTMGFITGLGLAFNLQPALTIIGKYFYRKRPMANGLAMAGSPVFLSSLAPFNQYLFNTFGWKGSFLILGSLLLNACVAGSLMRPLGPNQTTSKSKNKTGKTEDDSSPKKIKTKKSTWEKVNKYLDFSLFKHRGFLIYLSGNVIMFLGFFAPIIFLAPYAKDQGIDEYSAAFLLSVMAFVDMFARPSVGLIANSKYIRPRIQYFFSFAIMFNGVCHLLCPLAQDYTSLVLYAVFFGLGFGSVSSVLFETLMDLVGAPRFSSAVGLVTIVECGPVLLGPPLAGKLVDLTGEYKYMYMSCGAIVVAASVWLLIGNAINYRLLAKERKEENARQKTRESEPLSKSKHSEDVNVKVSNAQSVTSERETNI
Procedure: as §3

[5] = MCT filter binding assay, yeast membranes transformed with vector only; details: ~2.5 nM radioligand
Procedure: as §3

MCT1 = target: T5, MCT1 (Homo sapiens, UniProt P53985, D490E); experiment: MCT filter binding assay, yeast membranes, radioligand specific binding; design: made in house; host or cells: Saccharomyces cerevisiae BY4742 (jen1 deletion), membrane preparation; plasmid pACES14-hMCT1; details: ~2.5 nM radioligand
T5 sequence (P53985 1-500 D490E): T1 sequence (P53985 1-500 D490E)
Procedure: as §3

MDA-MB-231 cell line = experiment: Filter binding of 3H-ligand C to MDA-MB-231 cells; design: species or system human; details: untransfected MDA-MB-231
Procedure: The human breast cell line MDA-MB-231 had been previously identified as expressing low levels of MCT1 (Garcia et al., Cell. 76:865-873, 1994). The MDA-MB-231 cell line was grown. […] The cells were grown and transfected with pcDNA3-hMCT1. An increase in filter binding of ^3H-ligand C was consistently measured for transiently transfected cells when compared with control cells transfected with empty vector.

effect on decrease in intracellular pH on addition of exogenous lactate (human MCT1) | EC50 (activated T-lymphocytes [2]) | IC50 (activated T-lymphocytes [3]) | IC50 (activated T-lymphocytes [4]) | Compound | IC50 [1] | IC50 (Splenic B-lymphocytes; Mus musculus, 8-mercaptoguanosine 100 μg/ml, partial inhibition, read-out: IA50, proliferative response to 8MG) | IC50 (Splenic B-lymphocytes; Mus musculus, LPS 50 μg/ml, partial inhibition, read-out: IA50, proliferative response to LPS) | IC50 (Splenic B-lymphocytes; goat anti mouse IgM 40 μg/ml, weak, read-out: IA50, proliferative response to goat anti-mouse IgM) | Specific binding (cpm) Average (human MCT4; MCT4 (2 ug)) | Specific binding (cpm) Average (human MCT4; MCT4 (20 ug)) | Specific binding (cpm) Average (human MCT3; MCT3 (2 ug)) | Specific binding (cpm) Average (human MCT3; MCT3 (20 ug)) | Specific binding (cpm) Average (human MCT2; MCT2 (2 ug)) | Specific binding (cpm) Average (human MCT2; MCT2 (20 ug)) | Specific binding (cpm) Average ([5]; vector (2 ug)) | Specific binding (cpm) Average ([5]; vector (20 ug)) | Specific binding (cpm) Average (MCT1; MCT1 (2 ug)) | Specific binding (cpm) Average (MCT1; MCT1 (20 ug)) | binding sites per cell (MDA-MB-231 cell line)
completely abolished | 0.55 nM | 1.35 nM | 0.794 nM | CC(C)Cc1nn(C)c(=O)c2c(SCCCO)n(Cc3cccc4ccccc34)cc12 [Ligand 2, 2,6-dihydro-7-[(3-hydroxypropyl)thio]-2-methyl-4-(2-methylpropyl)-6-(1-napthanlenylmethyl)-1H-pyrrolo[3,4-d]pyridazin-1-one] | 0.38 nM | 10 nM | 5 nM | > 100 nM |  |  |  |  |  |  |  |  |  |  | 
 |  |  |  | [3H]CC([3H])(C[3H])Cn1c(=O)n(C)c(=O)c2c(SCCCO)n(Cc3cccc4ccccc34)cc21 [Ligand C, 5-[(3-Hydroxypropyl)thio]-1-([2,3,3′-^3H]isobutyl)-3-methyl-6-(1-naphthalenylmethyl)-1H-pyrrolo[3,4-d]pyrimidine-2,4(3H,6H)-dione] |  |  |  |  | 81 cpm | 0 cpm | 0 cpm | 40 cpm | 593 cpm | 213 cpm | 0 cpm | 0 cpm | 3621 cpm | 5553 cpm | ~6000 binding sites per cell

From patent publication US20040072746A1, “Inhibitors of monocarboxylate transport” (priority 2001, published 2004)
